The values below come from publication PMC7115410 (European Journal of Medicinal Chemistry, 2018).

Assay [1] has as its system Chk1 phosphorylation. The conditions noted are these: HCT116 cells.
Assay [2] relates to cleaved caspase 3, cleaved PARP 1, Bax, Bcl2. The conditions noted are these: FOLFOX-HCT116 cells, different concentrations, 24 h.
Assay [3] has the same test system. The conditions noted are these: FOLFOX-HT29 cells, different concentrations, 24 h.
The subject of assay [4] is Chk1 phosphorylation. The conditions noted are these: FOLFOX-HT29 cells, different concentrations, 24 h.
The test system of the next assay is γH2AX. The conditions noted are these: HCT-116 cells, 7b (5, 10 and 20 μM), 24 h.
The test system of the next assay is HCT116 cells. The conditions noted are these: 25 μM 5-FU alone.
A further assay has as its target Chk1 (Homo sapiens, UniProt O14757). The conditions noted are these: in vitro Chk1 kinase assay, purified Chk1 protein.

Read-outs that look alike come from different tables or passages of the source.

Chk1, sequence (O14757 whole entry): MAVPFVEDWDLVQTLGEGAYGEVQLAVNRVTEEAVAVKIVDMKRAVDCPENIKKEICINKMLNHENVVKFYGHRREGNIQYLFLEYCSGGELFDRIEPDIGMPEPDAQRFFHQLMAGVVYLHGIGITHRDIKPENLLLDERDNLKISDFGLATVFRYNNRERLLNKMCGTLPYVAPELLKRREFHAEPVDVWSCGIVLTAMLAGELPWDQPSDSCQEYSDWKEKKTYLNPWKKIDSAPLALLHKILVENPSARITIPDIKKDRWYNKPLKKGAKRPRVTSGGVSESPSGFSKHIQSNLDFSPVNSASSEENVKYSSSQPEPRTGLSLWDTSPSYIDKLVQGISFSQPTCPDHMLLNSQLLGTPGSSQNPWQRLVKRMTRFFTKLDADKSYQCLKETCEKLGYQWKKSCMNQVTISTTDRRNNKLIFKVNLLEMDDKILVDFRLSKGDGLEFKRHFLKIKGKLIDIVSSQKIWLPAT

On to “1-(3-Phenyl-allyl)-3,5,7-triaza-1-azonia-tricyclo[3.3.1.1^3,7]decane; chloride [Compound 7b]”, for which the “HU-induced phosphorylation of Chk1(S317P), Chk1(S345P) and Chk1(S296P)” value with Chk1 phosphorylation [1] (1 mM HU for 24 h followed by 20 μM 7b for additional 8 h) is “reduced after combination treatment”. The “Levels of cleaved caspase 3 and PARP1” value in assay [2] and in assay [3] was “increased levels” in each case. Moreover, the “Chk1(S345P) phosphorylation” value with Chk1 phosphorylation [4] is on record as “increase”. Also, the “γH2AX-foci, compound alone” value in the assay with γH2AX is on record as “increased γH2AX-foci”.
For `O=c1[nH]cc(F)c(=O)[nH]1` [Compound 5-FU, 5-fluorouracil], the Cell cycle profile entry with HCT116 cells was “S phase arrest”.
Turning to `ClC/C=C/C[N+]12CN3CN(CN(C3)C1)C2.[Cl-]` [Compound 7a, 1-(4-Chloro-but-2-enyl)-3,5,7-triaza-1-azonia-tricyclo[3.3.1.1^3,7]decane; chloride], the “Inhibition of Chk1 activity in a reconstituted purified system” value on Chk1 is “do not inhibit”. The “Levels of cleaved caspase 3 and PARP1” value in assay [2] and in assay [3] was “increased levels” in each case. Moreover, in the assay on Chk1 phosphorylation [4], the “Chk1(S345P) phosphorylation” value is “increase”.
For `NC(=O)NO` [HU, hydroxyurea, reference compound], the “Phosphorylation of Chk1(S317P), Chk1(S345P) and Chk1(S296P)” value with Chk1 phosphorylation [1] (1 mM HU alone) is listed as “high level phosphorylation”.
